The source of these data is patent US6569895B1, “Compounds and methods for the treatment of cardiovascular, inflammatory and immune disorders” (Millennium Pharmaceuticals, Inc., priority 1995, dated 2003).

Several values for one entry are separate records, joined by “and”; a condition that tells them apart may be missing. Equal entries are not always repeated.

The target of assay [1] is PAF (Homo sapiens, UniProt P25105). As to conditions: background statement; cited from earlier work.
Assay [2] deals with T1, 5-lipoxygenase (Homo sapiens, UniProt P09917).
T1 sequence (P09917 1-674): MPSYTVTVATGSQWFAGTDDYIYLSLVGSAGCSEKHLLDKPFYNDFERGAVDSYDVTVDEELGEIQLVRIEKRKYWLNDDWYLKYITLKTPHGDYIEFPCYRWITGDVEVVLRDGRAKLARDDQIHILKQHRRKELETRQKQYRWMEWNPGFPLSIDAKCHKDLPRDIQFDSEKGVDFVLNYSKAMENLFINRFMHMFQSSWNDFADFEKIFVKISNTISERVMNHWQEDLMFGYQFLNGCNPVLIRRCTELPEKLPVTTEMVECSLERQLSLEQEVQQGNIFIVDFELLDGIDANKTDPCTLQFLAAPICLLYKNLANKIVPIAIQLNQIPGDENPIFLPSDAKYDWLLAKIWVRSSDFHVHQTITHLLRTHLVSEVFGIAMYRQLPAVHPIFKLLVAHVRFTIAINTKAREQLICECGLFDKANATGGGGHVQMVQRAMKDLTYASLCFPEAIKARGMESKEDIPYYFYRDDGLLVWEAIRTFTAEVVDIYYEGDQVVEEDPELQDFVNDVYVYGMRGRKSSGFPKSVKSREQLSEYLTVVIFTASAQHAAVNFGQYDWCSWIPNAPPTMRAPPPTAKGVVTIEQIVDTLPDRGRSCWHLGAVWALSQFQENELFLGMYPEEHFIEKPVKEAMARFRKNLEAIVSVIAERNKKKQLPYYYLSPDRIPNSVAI
The note with it: background statement; cited from earlier work.

The target of assay [3] is T2, Cytosol 5-Lipoxygenase of Rat Basophile Leukemia Cells (Rattus norvegicus, UniProt P12527).
T2 construct: endogenous in cells; host or cells: RBL-2H3 cells (sonicate, 20,000 x g supernatant)
T2 sequence (P12527 1-673): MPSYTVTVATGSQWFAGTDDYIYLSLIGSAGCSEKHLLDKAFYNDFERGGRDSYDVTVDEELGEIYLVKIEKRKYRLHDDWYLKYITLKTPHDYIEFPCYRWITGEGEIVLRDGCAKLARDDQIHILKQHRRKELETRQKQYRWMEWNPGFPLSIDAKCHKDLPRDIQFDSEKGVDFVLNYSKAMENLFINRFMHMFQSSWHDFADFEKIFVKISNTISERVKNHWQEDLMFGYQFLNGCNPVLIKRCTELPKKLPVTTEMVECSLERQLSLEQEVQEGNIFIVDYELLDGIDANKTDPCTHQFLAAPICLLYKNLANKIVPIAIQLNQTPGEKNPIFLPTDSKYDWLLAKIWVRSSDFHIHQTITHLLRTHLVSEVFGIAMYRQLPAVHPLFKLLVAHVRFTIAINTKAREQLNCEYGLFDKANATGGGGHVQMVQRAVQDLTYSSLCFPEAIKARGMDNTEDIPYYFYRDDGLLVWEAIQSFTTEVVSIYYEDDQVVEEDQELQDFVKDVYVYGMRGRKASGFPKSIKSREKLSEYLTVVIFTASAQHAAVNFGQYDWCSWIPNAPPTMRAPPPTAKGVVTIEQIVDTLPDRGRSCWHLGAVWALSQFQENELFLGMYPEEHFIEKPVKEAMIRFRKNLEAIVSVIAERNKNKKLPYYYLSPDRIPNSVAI
Kind of assay: Cytosol 5-lipoxygenase of rat basophilic leukemia cells (RBL-2H3 preparation). It is filed as biochemical. As to conditions: RBL-2H3 cytosol preparation, [14C]arachidonic acid. As for the experimental part:
A wide variety of biological assays have also been used to evaluate the ability of a compound to inhibit the enzyme 5-lipoxygenase. For example, a cytosol 5-lipoxygenase of rat basophilic leukemia cells (RBL) has been widely utilized in studies on leukotriene biosynthesis. Compounds that inhibit 5-lipoxygenase decrease the levels of leukotrienes.
RBL-2H3 cells were grown to confluence in tissue culture flasks according to Carter et al. (J Pharm Exp Ther 256(3); 929-937, 1991). The cells were harvested and washed five times in calcium-and magnesium-free D-PBS. The cells were suspended at 2×10^7/M in 10 mM BES, 10 mM PIPES, pH 6.8, 1 mM EDTA and then sonicated. The sonicate was centrifuged at 20,000×g for 20 minutes at 4° C. The supernatant was then removed and stored in aliquots at −70° C.
The 5-LO activity in the RBL-2H3 preparation was determined as follows: 0.1 ml reactions consisting of 0.7 mM CaCl2, 100 mM NaCl, 1 mM EDTA, 10 mM BES, 10 MM PIPES, pH 7.4, varying concentrations of test compound dissolved in DMSO (7.5% DMSO final in assay), and an amount of the RBL-2H3 preparation that will convert 15% of the arachidonic acid substrate mixture to oxygenated products (determined experimentally for each RBL-2H3preparation), were incubated for 20 minutes at room temperature. The reaction was initiated by the addition of 5 μl of the arachidonic acid substrate mixture (0.944 nmol [^14C] arachidonic acid and 6.06 nmol arachidonic acid per assay in 0.028% NH4OH), and allowed to proceed for 5 minutes at 37° C. The reaction was terminated by the addition of 0.12 ml of a mixture of (i) 1.66 mg/ml triphenylphosphine in ethyl ether; (ii) methanol; and (iii) 0.2M citric acid (30:4:1); followed by centrifugation at 1000×g for 1 minute. […] The film was developed, scanned using a densitometer, and the peak areas of arachidonic acid and its product(s) are calculated. The percent inhibition was determined from the amount of [14C]-arachidonic acid converted into oxygenated products in samples containing test compound relative to that of control samples (no test compound).

Assay [4] has as its system 5-Lipoxygenase (LTB4 in whole blood). As to the kind of experiment: Ex-vivo mouse whole blood 5-lipoxygenase evaluation (LTB4). It is filed as in vivo. As to conditions: 3 mg/k iv, 60 minutes. How it is done:
(§1) CD-1 female mice, weighing 18-25 grams, and CD female rats, weighing 150-230 grams, were obtained from Charles River Labs. Test compounds were dissolved in 0.5% DMSO in 0.9% NaCl, for administration in mice (0.5 mg/ml) and in an alcohol vehicle (2% benzyl alcohol, 1% ethanol, 40% PEG 300, 10% propylene glycol, 47% of 5% dextrose and 3.5% pluronic F-68 in DiH2O) for use in rats (5 mg/ml). […] Heparinized whole blood (0.3 ml) was added into 1.5 ml Eppendorf centrifuge tube containing […] of 2 mM calcium ionophore A23187 (the final concentration of A23187 was […]). The sample was incubated for 30 minutes in a water bath at 37° C., and then centrifuged for 2 minutes. The plasma was diluted (×120) and assayed for LTB4 using EIA.

Assay [5] relates to Leukotriene B4 production in ionophore-stimulated human whole blood. As to the kind of experiment: Inhibition of leukotriene B4 production in ionophore-stimulated human whole blood. The class given is cell-based. The note with it: A23187 stimulated, LTB4 by EIA, read-out: HWB IC50. As for the experimental part:
Another biological assay used to evaluate the ability of a compound to inhibit the enzyme 5-lipoxygenase is based on the classic pharmacological model of inflammation induced by inhibition of LTB, from ionophore stimulated human whole blood.
Human blood was drawn into heparinized blood collection tubes, and aliquoted in 1 ml portions into 1.5 ml microfuge tubes. Test compound ([…]) of varying concentrations, dissolved in DMSO, was added to the blood sample and incubated for 15 minutes at 37° C. Calcium ionophore ([…], A23187) in DMSO was added to a final concentration of […], and the samples were incubated for 30 minutes at 37° C. Samples are then centrifuged at 1100×g (2500 rpm, H1000B rotor, in a Sorvall centrifuge) for 10 minutes at 4° C. Supernatant ([…]) was transferred into a 1.5 ml microfuge tube, […] of cold methanol added, and proteins precipitated on ice for 30 minutes. The samples were centrifuged at 110×g for 10 minutes at 4° C., and the supernatant assayed for LTB4 using a commercially available EIA kit (Cayman Chemical) according to manufacturer's specifications.

Assay [6] has as its system 5-Lipoxygenase (LTB4 in whole blood). As to the kind of experiment: Ex-vivo rat whole blood 5-lipoxygenase evaluation (LTB4). The class given is in vivo. The note with it: 2 mg/k po. How it is done: as §1

PAF, sequence (P25105 whole entry): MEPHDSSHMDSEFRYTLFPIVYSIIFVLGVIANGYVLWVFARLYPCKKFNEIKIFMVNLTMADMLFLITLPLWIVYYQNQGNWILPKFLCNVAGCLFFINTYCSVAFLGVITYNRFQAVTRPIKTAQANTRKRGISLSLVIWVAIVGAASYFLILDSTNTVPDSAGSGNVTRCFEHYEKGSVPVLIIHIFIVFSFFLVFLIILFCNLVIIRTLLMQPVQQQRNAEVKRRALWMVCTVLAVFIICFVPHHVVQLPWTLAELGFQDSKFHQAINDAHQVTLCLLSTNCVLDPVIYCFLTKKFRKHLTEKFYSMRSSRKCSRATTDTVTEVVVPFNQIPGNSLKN

As to `COc1cc([C@H]2CC[C@H](c3cc(OC)c(OC)c(OC)c3)S2)cc(OC)c1OC` (relative stereo) [L-653,150, trans-2,5-bis-(3,4,5-trimethoxyphenyl)tetrahydrothiophene], the PAF antagonist activity entry in assay [1] is listed as “potent PAF antagonist”. Besides, the “inhibition of 5-lipoxygenase” value in assay [2] is “moderate inhibitor of 5-lipoxygenase”.

`NC(=O)N(O)CCC#C[C@@H]1CC[C@@H](COc2ccc(F)cc2)O1`: in assay [3], the IC50 was 1.38 µM and 1.49 µM and 0.56 µM and 1.6 µM and 0.72 µM. Besides, the “ex vivo LTB4 % inh.” value in assay [4] is 22%. For the compound `NC(=O)N(O)CCC#C[C@H]1CC[C@H](COc2ccc(F)cc2)O1`, the IC50 in assay [5] is 0.15 µM. With `NC(=O)N(O)CCC#C[C@H]1CC[C@@H](COc2ccc(F)cc2)O1`, in assay [5], the half-maximal inhibitory concentration (IC50) turned out to be 0.43 µM. Further, the “ex vivo LTB4 % inh.” value in assay [6] (60 minutes) was 86%; in assay [6] (360 minutes) it was 63%. As for `NC(=O)N(O)CCCC[C@@H]1CC[C@@H](COc2ccc(F)cc2)O1`, the 50% inhibitory concentration (IC50) in assay [3] was 1.23 µM and 1.4 µM. On the same count and under the same terms, under `NC(=O)N(O)CCCC[C@@H]1CCC(COc2ccc(F)cc2)O1` (single isomer, unassigned) stands 0.95 µM.

As usually defined, the IC50 is the concentration needed to halve the response being measured.
